From patent US10131652B2, “Pyrimidinyloxy benzene derivatives as herbicides” (E. I. DU PONT DE NEMOURS AND COMPANY, priority 2014, dated 2018)

How the values were obtained:
Format in all cases: in vivo
kochia (Kochia scoparia) = experiment: Test D postemergence plant response; settings: for pest or weed control at 16 g/ha / pest or weed control at 31 g/ha / pest or weed control at 62 g/ha / pest or weed control at 125 g/ha: Bassia scoparia, post-emergence; for pest or weed control at 16 g/ha / pest or weed control at 31 g/ha / Kochia plant response rating: scale 0 to 100 (0 no effect, 100 complete control); for pest or weed control at 16 g/ha / pest or weed control at 31 g/ha: read-out: Kochia plant response rating; for pest or weed control at 62 g/ha / pest or weed control at 125 g/ha / Plant response rating, Kochia: scale 0 to 100, 0 no effect, 100 complete control; for pest or weed control at 62 g/ha / pest or weed control at 125 g/ha: read-out: Plant response rating, Kochia
Outline: (§1)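 Plants grown in pots of peat moss–vermiculite medium with wetting agent and starter nutrients received postemergence applications of the formulated test chemicals at 2 to 18 cm height (1- to 4-leaf stage). After 13 to 15 days in a greenhouse, injury was scored visually against untreated controls, 0 (no effect) to 100 (complete control).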

wild oat (Avena fatua) = experiment: Test D postemergence plant response; settings: for pest or weed control at 16 g/ha / pest or weed control at 31 g/ha / pest or weed control at 62 g/ha / pest or weed control at 125 g/ha: Avena fatua, post-emergence; for pest or weed control at 16 g/ha / pest or weed control at 31 g/ha / Oat, Wild plant response rating: scale 0 to 100 (0 no effect, 100 complete control); for pest or weed control at 16 g/ha / pest or weed control at 31 g/ha: read-out: Oat, Wild plant response rating; for pest or weed control at 62 g/ha / pest or weed control at 125 g/ha / Plant response rating, Oat, Wild: scale 0 to 100, 0 no effect, 100 complete control; for pest or weed control at 62 g/ha / pest or weed control at 125 g/ha: read-out: Plant response rating, Oat, Wild
Outline: as §1

[1] = test system: chickweed (common chickweed, Stellaria media); experiment: Test D postemergence plant response; settings: for pest or weed control at 16 g/ha / pest or weed control at 31 g/ha / pest or weed control at 62 g/ha / pest or weed control at 125 g/ha: Stellaria media, post-emergence; for pest or weed control at 16 g/ha / pest or weed control at 31 g/ha / Chickweed plant response rating: scale 0 to 100 (0 no effect, 100 complete control); for pest or weed control at 16 g/ha / pest or weed control at 31 g/ha: read-out: Chickweed plant response rating; for pest or weed control at 62 g/ha / pest or weed control at 125 g/ha / Plant response rating, Chickweed: scale 0 to 100, 0 no effect, 100 complete control; for pest or weed control at 62 g/ha / pest or weed control at 125 g/ha: read-out: Plant response rating, Chickweed
Outline: as §1

[2] = test system: waterhemp_RES2 (ALS & HPPD resistant common waterhemp, Amaranthus rudis); experiment: Test F postemergence plant response; settings: scale 0 to 100
Procedure: (§2) At the same time, plants from these crop and weed species and also waterhemp_RES1, (ALS & Triazine resistant common waterhemp, Amaranthus rudis), and waterhemp_RES2, (ALS & HPPD resistant common waterhemp, Amaranthus rudis) were treated with postemergence applications of test chemicals formulated in the same manner. Plants ranged in height from 2 to 18 cm for postemergence treatments (1- to 4-leaf stage).
(§3) Treated plants and controls were maintained in a greenhouse for 14 to 21 days, after which time all species were compared to controls and visually evaluated. Plant response ratings, summarized in Table F, are based on a scale of 0 to 100 where 0 is no effect and 100 is complete control. A dash (-) response means no test result.

[3] = test system: waterhemp_RES1 (ALS & Triazine resistant common waterhemp, Amaranthus rudis); experiment: Test F postemergence plant response; settings: scale 0 to 100
Procedure: as §2, §3

[4] = test system: galium (catchweed bedstraw, Galium aparine); experiment: Test B postemergence plant response
Outline: (§4)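 Injury was assessed visually about 10 days after treatment, scored from 0 (no effect) to 100 (complete control) by comparison with untreated controls. Test chemicals had been applied postemergence to potted plants at the one- to two-leaf stage, grown in loam soil and sand in a greenhouse.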

[5] = test system: blackgrass (Alopecurus myosuroides); experiment: Test B postemergence plant response
Outline: as §4

[6] = 125 g ai/ha, postemergence, 0 to 100 scale, 0 no effect, 100 complete control
[7] = Postemergence, 500 g ai/ha, 0 to 100 scale (0 no effect, 100 complete control)
[8] = Postemergence, 1000 g ai/ha, 0 to 100 scale (0 no effect, 100 complete control)
[9] = 31 g ai/ha, Postemergence, 0 to 100 scale, 0 no effect, 100 complete control
[10] = Postemergence, 31 g ai/ha, 0 to 100 scale (0 no effect, 100 complete control)

SMILES	pest or weed control at 31 g/ha (kochia (Kochia scoparia); 31 g ai/ha)	pest or weed control at 62 g/ha (kochia (Kochia scoparia); 62 g ai/ha)	pest or weed control at 125 g/ha (kochia (Kochia scoparia); 125 g ai/ha)	pest or weed control at 31 g/ha (wild oat (Avena fatua); 31 g ai/ha)	pest or weed control at 62 g/ha (wild oat (Avena fatua); 62 g ai/ha)	pest or weed control at 125 g/ha (wild oat (Avena fatua); 125 g ai/ha)	pest or weed control at 16 g/ha ([1]; 16 g ai/ha)	pest or weed control at 31 g/ha ([1]; 31 g ai/ha)	pest or weed control at 62 g/ha ([1]; 62 g ai/ha)	pest or weed control at 125 g/ha ([1]; 125 g ai/ha)	Plant response rating, Waterhemp_RES2 ([2]; 16 g ai/ha Postemergence)	Plant response rating, Waterhemp_RES2 ([2]; 31 g ai/ha Postemergence)	Plant response rating, Waterhemp_RES2 ([2]; 62 g ai/ha Postemergence)	Plant response rating, Waterhemp_RES2 ([2]; 125 g ai/ha Postemergence)	Plant response rating, Waterhemp_RES1 ([3]; 16 g ai/ha Postemergence)	Plant response rating, Waterhemp_RES1 ([3]; 31 g ai/ha Postemergence)	Plant response rating, Waterhemp_RES1 ([3]; 62 g ai/ha Postemergence)	Plant response rating, Waterhemp_RES1 ([3]; 125 g ai/ha Postemergence)	Plant response rating, Galium [4, 6]	Plant response rating, Blackgrass [5, 6]	further results
FC(F)c1cc(-c2ccccc2Oc2ncc(Cl)cn2)on1 [Compound 53, 5-chloro-2-[2-[3-(difluoromethyl)-5-isoxazolyl]phenoxy]pyrimidine]	100%	100%	100%	10%	30%	20%	50%	80%	80%	90%	80	90	100	100	85	90	95	100	100	100	pest or weed control at 16 g/ha (kochia (Kochia scoparia); 16 g ai/ha): 90%; pest or weed control at 16 g/ha (wild oat (Avena fatua); 16 g ai/ha): 5%; Plant response rating, Waterhemp_RES2 ([2]; 8 g ai/ha Postemergence): 70; Plant response rating, Waterhemp_RES1 ([3]; 8 g ai/ha Postemergence): 70; Plant response rating, Galium [4, 7]: 100; Plant response rating, Blackgrass [5, 7]: 100
Fc1cccc(Oc2ncc(Cl)cn2)c1-c1cc(C(F)F)on1 [Compound 55, 5-chloro-2-[2-[5-(difluoromethyl)-3-isoxazolyl]-3-fluorophenoxy]pyrimidine]	100%	100%	100%	15%	40%	40%	70%	75%	98%	100%	–	100	100	–	–	100	100	–	–	–	pest or weed control at 16 g/ha (kochia (Kochia scoparia); 16 g ai/ha): 98%; pest or weed control at 16 g/ha (wild oat (Avena fatua); 16 g ai/ha): 5%; Plant response rating, Galium [4, 8]: 100; Plant response rating, Blackgrass [5, 8]: 100
Cc1cc(-c2ccccc2Oc2ncc(Cl)cn2)on1 [Compound 58]	–	–	–	–	–	–	–	–	–	–	60	70	75	80	20	65	70	75	100	70	Kochia plant response rating (kochia (Kochia scoparia); 16 g ai/ha): 35; Kochia plant response rating (kochia (Kochia scoparia); 31 g ai/ha): 50; Plant response rating, Kochia (kochia (Kochia scoparia); 62 g ai/ha): 60; Plant response rating, Kochia (kochia (Kochia scoparia); 125 g ai/ha): 80; Oat, Wild plant response rating (wild oat (Avena fatua); 16 g ai/ha): 0; Oat, Wild plant response rating (wild oat (Avena fatua); 31 g ai/ha): 0; Plant response rating, Oat, Wild (wild oat (Avena fatua); 62 g ai/ha): 0; Plant response rating, Oat, Wild (wild oat (Avena fatua); 125 g ai/ha): 0; Chickweed plant response rating ([1]; 16 g ai/ha): 5; Chickweed plant response rating ([1]; 31 g ai/ha): 10; Plant response rating, Chickweed ([1]; 62 g ai/ha): 15; Plant response rating, Chickweed ([1]; 125 g ai/ha): 30; Plant response rating, Waterhemp_RES2 ([2]; 8 g ai/ha Postemergence): 65; Plant response rating, Waterhemp_RES1 ([3]; 8 g ai/ha Postemergence): 10; Plant response rating, Galium [4, 7]: 100; Plant response rating, Blackgrass [5, 7]: 90
Fc1ccc(Oc2ncc(Cl)cn2)c(-c2cc(C(F)F)on2)c1Cl [Compound 96]	–	–	–	–	–	–	–	–	–	–	85	90	90	95	85	90	95	95	100	70	Kochia plant response rating (kochia (Kochia scoparia); 16 g ai/ha): 25; Kochia plant response rating (kochia (Kochia scoparia); 31 g ai/ha): 60; Plant response rating, Kochia (kochia (Kochia scoparia); 62 g ai/ha): 85; Plant response rating, Kochia (kochia (Kochia scoparia); 125 g ai/ha): 100; Oat, Wild plant response rating (wild oat (Avena fatua); 16 g ai/ha): 15; Oat, Wild plant response rating (wild oat (Avena fatua); 31 g ai/ha): 20; Plant response rating, Oat, Wild (wild oat (Avena fatua); 62 g ai/ha): 20; Plant response rating, Oat, Wild (wild oat (Avena fatua); 125 g ai/ha): 20; Chickweed plant response rating ([1]; 16 g ai/ha): 60; Chickweed plant response rating ([1]; 31 g ai/ha): 85; Plant response rating, Chickweed ([1]; 62 g ai/ha): 90; Plant response rating, Chickweed ([1]; 125 g ai/ha): 98; Plant response rating, Galium [4, 9]: 100; Plant response rating, Blackgrass [5, 9]: 10
Fc1cccc(Oc2ncc(Cl)cn2)c1-c1cc(C(F)F)no1 [Compound 144, 5-chloro-2-[2-[3-(difluoromethyl)-5-isoxazolyl]-3-fluorophenoxy]pyrimidine]	100%	100%	100%	0%	5%	10%	70%	80%	95%	95%	98	100	100	100	90	95	100	100	100	90	Plant response rating, Galium [4, 10]: 100; Plant response rating, Blackgrass [5, 10]: 80
